Assay results as given in patent publication US12139492B2 (Endotarget Inc., priority 2021, dated 2024).

Key:
Type in all cases: cell-based
[1] = system: Mino cells; assay: Antiproliferative effect, MTS cell viability assay, Mino cells; settings: Homo sapiens, MINO, Mino mantle cell lymphoma cells; read-out: IC50 (anti-proliferation) Mino cells
In short: (§1)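 MTS read-out, A490 of formazan from metabolically active cells; compound 0–10 μM (0, 0.001, 0.01, 0.1, 1, 10 μM), 72 h exposure.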

[2] = system: JeKo-1 cells; assay: Antiproliferative effect, MTS cell viability assay, JeKo-1 cells; settings: Homo sapiens; JeKo-1 mantle cell lymphoma cells; read-out: IC50 (anti-proliferation) JeKO-1 cells
In short: as §1

[3] = target: BTK (Homo sapiens, UniProt Q06187); assay: BTK degradation, DC50 and Dmax of Table 1 (cell line not given); set-up: endogenous in cells; settings: for DC50: concentration giving 50% reduction of BTK expression level
Chain of BTK (Q06187 whole entry): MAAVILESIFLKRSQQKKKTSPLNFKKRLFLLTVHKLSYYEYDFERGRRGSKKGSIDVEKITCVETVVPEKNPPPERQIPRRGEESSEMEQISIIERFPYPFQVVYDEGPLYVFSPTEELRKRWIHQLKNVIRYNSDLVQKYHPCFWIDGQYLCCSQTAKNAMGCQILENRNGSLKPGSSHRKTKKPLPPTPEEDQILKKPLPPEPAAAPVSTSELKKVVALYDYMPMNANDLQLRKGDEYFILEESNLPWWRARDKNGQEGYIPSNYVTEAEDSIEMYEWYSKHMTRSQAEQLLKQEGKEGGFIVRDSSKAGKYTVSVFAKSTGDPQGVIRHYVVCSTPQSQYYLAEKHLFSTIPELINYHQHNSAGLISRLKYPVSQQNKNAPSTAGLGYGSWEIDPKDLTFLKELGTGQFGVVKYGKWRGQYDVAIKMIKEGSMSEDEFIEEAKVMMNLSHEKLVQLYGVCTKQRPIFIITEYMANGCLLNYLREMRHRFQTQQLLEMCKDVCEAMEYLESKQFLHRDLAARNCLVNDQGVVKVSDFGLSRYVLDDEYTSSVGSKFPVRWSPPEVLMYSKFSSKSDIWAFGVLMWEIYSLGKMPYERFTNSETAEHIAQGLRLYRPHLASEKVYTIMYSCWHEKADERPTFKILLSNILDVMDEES

Nc1ncnc2c1c(-c1ccc(Oc3ccccc3)cc1)nn2[C@@H]1CCCN(C2CCN(C(=O)N3CCN(CCCN4CCC(c5ccc6c(c5)CN(C5CCC(=O)NC5=O)C6=O)CC4)CC3)CC2)C1 (stereo partly drawn) [Compound 192, 3-(5-(1-(3-(4-((R)-3-(4-amino-3-(4-phenoxyphenyl)-1H-pyrazolo[3,4-d]pyrimidin-1-yl)-[1,4′-bipiperidine]-1′-carbonyl)piperazin-1-yl)propyl)piperidin-4-yl)-1-oxoisoindolin-2-yl)piperidine-2,6-dione]
IC50 [1]: > 10 µM
IC50 [2]: > 10 µM
Dmax [3]: > 75%
DC50 [3]: 0.01 to 0.05 µM

Nc1ncnc2c1c(-c1ccc(Oc3ccccc3)cc1)nn2[C@@H]1CCCN(C(=O)N2CCN(CCCC3CCN(c4ccc5c(c4)CN(C4CCC(=O)NC4=O)C5=O)CC3)CC2)C1 (stereo partly drawn) [Compound 110, 3-(5-(4-(3-(4-((R)-3-(4-amino-3-(4-phenoxyphenyl)-1H-pyrazolo[3,4-d]pyrimidin-1-yl)piperidine-1-carbonyl)piperazin-1-yl)propyl)piperidin-1-yl)-1-oxoisoindolin-2-yl)piperidine-2,6-dione]
IC50 [1]: > 10 µM
IC50 [2]: > 10 µM
Dmax [3]: > 75%
DC50 [3]: > 0.05 µM

Nc1ncnc2c1c(-c1ccc(Oc3ccccc3)cc1)nn2C1CCCN(CCOCCOCCN2CCC(c3ccc4c(c3)CN(C3CCC(=O)NC3=O)C4=O)CC2)C1 (centres unmarked) [Compound 14, 3-(5-(1-(2-(2-(2-(3-(4-amino-3-(4-phenoxyphenyl)-1H-pyrazolo[3,4-d]pyrimidin-1-yl)piperidin-1-yl)ethoxy)ethoxy)ethyl)piperidin-4-yl)-1-oxoisoindolin-2-yl)piperidine-2,6-dione]
IC50 [1]: 1 to 10 µM
IC50 [2]: 1 to 10 µM
Dmax [3]: > 90%
DC50 [3]: 0.01 to 0.05 µM

Nc1ncnc2c1c(-c1ccc(Oc3ccccc3)cc1)nn2[C@@H]1CCCN(C(=O)N2CCN(CCC3CCN(c4ccc5c(c4)CN(C4CCC(=O)NC4=O)C5=O)CC3)CC2)C1 (stereo partly drawn) [Compound 68, 3-(5-(4-(2-(4-((R)-3-(4-amino-3-(4-phenoxyphenyl)-1H-pyrazolo[3,4-d]pyrimidin-1-yl)piperidine-1-carbonyl)piperazin-1-yl)ethyl)piperidin-1-yl)-1-oxoisoindolin-2-yl)piperidine-2,6-dione]
IC50 [1]: 1 to 10 µM
IC50 [2]: 1 to 10 µM
Dmax [3]: > 90%
DC50 [3]: < 0.01 µM

Nc1ncnc2c1c(-c1ccc(Oc3ccccc3)cc1)nn2C1CCCN(CCOCCOCCN2CCN(c3ccc4c(c3)CN(C3CCC(=O)NC3=O)C4=O)CC2)C1 (centres unmarked) [Compound 4, 3-(5-(4-(2-(2-(2-(3-(4-amino-3-(4-phenoxyphenyl)-1H-pyrazolo[3,4-d]pyrimidin-1-yl)piperidin-1-yl)ethoxy)ethoxy)ethyl)piperazin-1-yl)-1-oxoisoindolin-2-yl)piperidine-2,6-dione]
IC50 [1]: 1 to 10 µM
IC50 [2]: 1 to 10 µM
Dmax [3]: > 90%
DC50 [3]: < 0.01 µM

Nc1ncnc2c1c(-c1ccc(Oc3ccccc3)cc1)nn2[C@@H]1CCCN(CC2CCN(CCN3CCC(c4ccc5c(c4)C(=O)N(C4CCC(=O)NC4=O)C5=O)CC3)CC2)C1 (stereo partly drawn) [Compound 135, 5-(1-(2-(4-(((R)-3-(4-amino-3-(4-phenoxyphenyl)-1H-pyrazolo[3,4-d]pyrimidin-1-yl)piperidin-1-yl)methyl)piperidin-1-yl)ethyl)piperidin-4-yl)-2-(2,6-dioxopiperidin-3-yl)isoindoline-1,3-dione]
IC50 [1]: < 1 µM
IC50 [2]: 1 to 10 µM
Dmax [3]: > 90%
DC50 [3]: < 0.01 µM

Nc1ncnc2c1c(-c1ccc(Oc3ccccc3)cc1)nn2[C@@H]1CCCN(C(=O)N2CCC(CCCN3CCC(c4ccc5c(c4)C(=O)N(C4CCC(=O)NC4=O)C5=O)CC3)CC2)C1 (stereo partly drawn) [Compound 115, 5-(1-(3-(1-((R)-3-(4-amino-3-(4-phenoxyphenyl)-1H-pyrazolo[3,4-d]pyrimidin-1-yl)piperidine-1-carbonyl)piperidin-4-yl)propyl)piperidin-4-yl)-2-(2,6-dioxopiperidin-3-yl)isoindoline-1,3-dione]
IC50 [1]: 1 to 10 µM
IC50 [2]: > 10 µM
Dmax [3]: > 75%
DC50 [3]: > 0.05 µM

Nc1ncnc2c1c(-c1ccc(Oc3ccccc3)cc1)nn2[C@@H]1CCCN(C(=O)N2CCC(C3CCN(c4ccc5c(c4)CN(C4CCC(=O)NC4=O)C5=O)CC3)CC2)C1 (stereo partly drawn) [Compound 50, 3-(5-(1′-((R)-3-(4-amino-3-(4-phenoxyphenyl)-1H-pyrazolo[3,4-d]pyrimidin-1-yl)piperidine-1-carbonyl)-[4,4′-bipiperidin]-1-yl)-1-oxoisoindolin-2-yl)piperidine-2,6-dione]
IC50 [1]: 1 to 10 µM
IC50 [2]: 1 to 10 µM
Dmax [3]: > 90%
DC50 [3]: 0.01 to 0.05 µM

Nc1ncnc2c1c(-c1ccc(Oc3ccccc3)cc1)nn2[C@@H]1CCCN(C2CCN(CCCN3CCN(c4ccc5c(c4)C(=O)N(C4CCC(=O)NC4=O)C5=O)CC3)CC2)C1 (stereo partly drawn) [Compound 151, 5-(4-(3-((R)-3-(4-amino-3-(4-phenoxyphenyl)-1H-pyrazolo[3,4-d]pyrimidin-1-yl)-[1,4′-bipiperidin]-1′-yl)propyl)piperazin-1-yl)-2-(2,6-dioxopiperidin-3-yl)isoindoline-1,3-dione]
IC50 [1]: > 10 µM
IC50 [2]: > 10 µM
Dmax [3]: > 75%
DC50 [3]: > 0.05 µM

Nc1ncnc2c1c(-c1ccc(Oc3ccccc3)cc1)nn2C1CCN(C(=O)N2CCN(c3ccc4c(c3)CN(C3CCC(=O)NC3=O)C4=O)CC2)CC1 (centres unmarked) [Compound 76, 3-(5-(4-(4-(4-amino-3-(4-phenoxyphenyl)-1H-pyrazolo[3,4-d]pyrimidin-1-yl)piperidine-1-carbonyl)piperazin-1-yl)-1-oxoisoindolin-2-yl)piperidine-2,6-dione]
IC50 [1]: > 10 µM
IC50 [2]: > 10 µM
Dmax [3]: > 50%
DC50 [3]: > 0.05 µM

Nc1ncnc2c1c(-c1ccc(Oc3ccccc3)cc1)nn2C1CCN(CCOCCN2CCN(c3ccc4c(c3)CN(C3CCC(=O)NC3=O)C4=O)CC2)CC1 (centres unmarked) [Compound 6, 3-(5-(4-(2-(2-(4-(4-amino-3-(4-phenoxyphenyl)-1H-pyrazolo[3,4-d]pyrimidin-1-yl)piperidin-1-yl)ethoxy)ethyl)piperazin-1-yl)-1-oxoisoindolin-2-yl)piperidine-2,6-dione]
IC50 [1]: < 1 µM
IC50 [2]: < 1 µM
Dmax [3]: > 90%
DC50 [3]: 0.01 to 0.05 µM

Nc1ncnc2c1c(-c1ccc(Oc3ccccc3)cc1)nn2C1CCN(C(=O)N2CCN(CC3CCN(c4ccc5c(c4)CN(C4CCC(=O)NC4=O)C5=O)CC3)CC2)CC1 (centres unmarked) [Compound 88, 3-(5-(4-((4-(4-(4-amino-3-(4-phenoxyphenyl)-1H-pyrazolo[3,4-d]pyrimidin-1-yl)piperidine-1-carbonyl)piperazin-1-yl)methyl)piperidin-1-yl)-1-oxoisoindolin-2-yl)piperidine-2,6-dione]
IC50 [1]: < 1 µM
IC50 [2]: < 1 µM
Dmax [3]: > 90%
DC50 [3]: 0.01 to 0.05 µM

Nc1ncnc2c1c(-c1ccc(Oc3ccccc3)cc1)nn2C1CCN(CC2CCN(C(=O)N3CCC(C4CCN(c5ccc6c(c5)CN(C5CCC(=O)NC5=O)C6=O)CC4)CC3)CC2)CC1 (centres unmarked) [Compound 40, 3-(5-(1′-(4-((4-(4-amino-3-(4-phenoxyphenyl)-1H-pyrazolo[3,4-d]pyrimidin-1-yl)piperidin-1-yl)methyl)piperidine-1-carbonyl)-[4,4′-bipiperidin]-1-yl)-1-oxoisoindolin-2-yl)piperidine-2,6-dione]
IC50 [1]: 1 to 10 µM
IC50 [2]: 1 to 10 µM
Dmax [3]: > 90%
DC50 [3]: > 0.05 µM

Nc1ncnc2c1c(-c1ccc(Oc3ccccc3)cc1)nn2[C@@H]1CCCN(C2CCN(CCCN3CCC(c4ccc5c(c4)C(=O)N(C4CCC(=O)NC4=O)C5=O)CC3)CC2)C1 (stereo partly drawn) [Compound 153, 5-(1-(3-((R)-3-(4-amino-3-(4-phenoxyphenyl)-1H-pyrazolo[3,4-d]pyrimidin-1-yl)-[1,4′-bipiperidin]-1′-yl)propyl)piperidin-4-yl)-2-(2,6-dioxopiperidin-3-yl)isoindoline-1,3-dione]
IC50 [1]: > 10 µM
IC50 [2]: > 10 µM
Dmax [3]: > 75%
DC50 [3]: > 0.05 µM

Nc1ncnc2c1c(-c1ccc(Oc3ccccc3)cc1)nn2[C@@H]1CCCN(C2CCN(C(=O)N3CCN(CC4CCN(c5ccc6c(c5)CN(C5CCC(=O)NC5=O)C6=O)CC4)CC3)CC2)C1 (stereo partly drawn) [Compound 172, 3-(5-(4-((4-((R)-3-(4-amino-3-(4-phenoxyphenyl)-1H-pyrazolo[3,4-d]pyrimidin-1-yl)-[1,4′-bipiperidine]-1′-carbonyl)piperazin-1-yl)methyl)piperidin-1-yl)-1-oxoisoindolin-2-yl)piperidine-2,6-dione]
IC50 [1]: 1 to 10 µM
IC50 [2]: 1 to 10 µM
Dmax [3]: > 90%
DC50 [3]: 0.01 to 0.05 µM

Nc1ncnc2c1c(-c1ccc(Oc3ccccc3)cc1)nn2[C@@H]1CCCN(C(=O)N2CCN(CCCN3CCC(c4ccc5c(c4)CN(C4CCC(=O)NC4=O)C5=O)CC3)CC2)C1 (stereo partly drawn) [Compound 112, 3-(5-(1-(3-(4-((R)-3-(4-amino-3-(4-phenoxyphenyl)-1H-pyrazolo[3,4-d]pyrimidin-1-yl)piperidine-1-carbonyl)piperazin-1-yl)propyl)piperidin-4-yl)-1-oxoisoindolin-2-yl)piperidine-2,6-dione]
IC50 [1]: 1 to 10 µM
IC50 [2]: 1 to 10 µM
Dmax [3]: > 75%
DC50 [3]: > 0.05 µM

Nc1ncnc2c1c(-c1ccc(Oc3ccccc3)cc1)nn2[C@@H]1CCCN(C(=O)N2CCN(CCCN3CCC(c4ccc5c(c4)C(=O)N(C4CCC(=O)NC4=O)C5=O)CC3)CC2)C1 (stereo partly drawn) [Compound 111, 5-(1-(3-(4-((R)-3-(4-amino-3-(4-phenoxyphenyl)-1H-pyrazolo[3,4-d]pyrimidin-1-yl)piperidine-1-carbonyl)piperazin-1-yl)propyl)piperidin-4-yl)-2-(2,6-dioxopiperidin-3-yl)isoindoline-1,3-dione]
IC50 [1]: 1 to 10 µM
IC50 [2]: 1 to 10 µM
Dmax [3]: > 75%
DC50 [3]: > 0.05 µM
